According to US7241799B2, “Cannabimimetic indole derivatives” (University of Connecticut, priority 1999, dated 2007):
Like-named read-outs stand apart in the source and are kept apart here.

Tests used:
CB1 receptor = target: T1, CB1 receptor (Rattus norvegicus, UniProt P20272); assay: CB1 receptor binding, [3H] CP-55,940 displacement, rat forebrain membranes; conditions: for Ki: rat forebrain membranes, 0.8 nM [3H] CP-55,940, read-out: Kl CB1; for selectivity for the CB1 receptor: binding selectivity CB1 versus CB2, from the results in the TABLES
T1 construct: membranes were prepared from rat forebrain membranes; from tissue; host or cells: rat forebrain
Protocol: (§1) The materials were tested for CB2 receptor binding affinity and for CB1 receptor affinity (to determine selectivity for the CB2 receptor). As used herein, “binding affinity” is represented by the IC50 value which is the concentration of an analog required to occupy the 50% of the total number (Bmax) of the receptors. The lower the IC50 value the higher the binding affinity.
For the CB1 receptor binding studies, membranes were prepared from rat forebrain membranes according to the procedure of P. R. Dodd et al, A Rapid Method for Preparing Synaptosomes: Comparison with Alternative Procedures, Brain Res., 107–118 (1981). The binding of the novel analogues to the CB1 cannabinoid receptor was assessed as described in W. A. Devane et al, Determination and Characterization of a Cannabinoid Receptor in a Rat Brain, Mol. Pharmacol., 34, 605–613 (1988) and A. Charalambous et al, 5′-azido Δ^8 THC: A Novel Photoaffinity Label for the Cannabinoid Receptor, J. Med. Chem., 35, 3076–3079 (1992) with the following changes. The above articles are incorporated by reference herein.
Membranes, previously frozen at −80° C., were thawed on ice. To the stirred suspension was added three volumes of TME (25 mM Tris-HCl buffer, 5 mM MgCl2 and 1 mM EDTA) at a pH 7.4. The suspension was incubated at 4° C. for 30 min. At the end of the incubation, the membranes were pelleted and washed three times with TME.
(§2) The treated membranes were subsequently used in the binding assay described below. Approximately 30 μg of membranes were incubated in silanized 96-well microtiter plate with TME containing 0.1% essentially fatty acid-free bovine serum albumin (BSA), 0.8 nM [^3H] CP-55,940, and various concentrations of test materials at […] for 1 hour. The samples were filtered using Packard Filtermate 196 and Whatman GF/C filterplates and washed with wash buffer (TME) containing 0.5% BSA. Radioactivity was detected using MicroScint 20 scintillation cocktail added directly to the dried filterplates, and the filterplates were counted using a Packard Instruments Top-Count. Nonspecific binding was assessed using 100 nM CP-55,940. Data collected from three independent experiments performed with duplicate determinations was normalized between 100% and 0% specific binding for [^3H] CP-55,940, determined using buffer and 100 nM CP-55,940. The normalized data was analyzed using a 4-parameter nonlinear logistic equation to yield IC50 values. Data from at least two independent experiments performed in duplicate was used to calculate IC50 values which were converted to Ki values using the assumptions of Cheng et al, Relationship Between the Inhibition Constant (Ki) and the concentration of Inhibitor which causes 50% Inhibition (IC50) of an Enzymatic Reaction, Biochem. Pharmacol., 22, 3099–3102, (1973), which is incorporated by reference herein.

CB2 receptor = target: T2, CB2 receptor (Mus musculus, UniProt P47936); assay: CB2 receptor binding, [3H] CP-55,940 displacement, mouse spleen membranes; conditions: for Ki: mouse spleen membranes, [3H] CP-55,940, read-out: Kl CB2 (converted); for selectivity for the CB2 receptor: binding selectivity CB2 versus CB1, from the results in the TABLES
T2 construct: membranes were prepared from frozen mouse spleen; from tissue; host or cells: mouse spleen
Protocol: as §1, §2
For the CB2 receptor binding studies, membranes were prepared from frozen mouse spleen essentially according to the procedure of P. R. Dodd et al, A Rapid Method for Preparing Synaptosomes: Comparison with Alternative Procedures, Brain Res., 226, 107–118 (1981) which is incorporated by reference herein. Silanized centrifuge tubes were used throughout to minimize receptor loss due to adsorption. The CB2 binding assay was conducted in the same manner as for the CB1 binding assay. The binding affinities (Ki) were also expressed in nanomoles (nM).

T1 sequence (P20272 whole entry): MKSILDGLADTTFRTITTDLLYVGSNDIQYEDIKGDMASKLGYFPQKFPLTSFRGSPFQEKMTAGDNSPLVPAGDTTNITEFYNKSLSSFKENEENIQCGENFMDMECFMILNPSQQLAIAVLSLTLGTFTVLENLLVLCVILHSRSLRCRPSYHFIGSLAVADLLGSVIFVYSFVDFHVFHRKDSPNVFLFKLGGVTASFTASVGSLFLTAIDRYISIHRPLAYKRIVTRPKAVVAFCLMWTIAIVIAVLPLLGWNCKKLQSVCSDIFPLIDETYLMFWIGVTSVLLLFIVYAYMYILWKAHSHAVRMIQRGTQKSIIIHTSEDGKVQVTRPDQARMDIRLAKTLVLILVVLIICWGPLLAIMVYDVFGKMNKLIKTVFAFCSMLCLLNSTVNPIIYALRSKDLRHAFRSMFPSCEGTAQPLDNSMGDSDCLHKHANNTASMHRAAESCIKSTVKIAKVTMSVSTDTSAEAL
T2 sequence (P47936 whole entry): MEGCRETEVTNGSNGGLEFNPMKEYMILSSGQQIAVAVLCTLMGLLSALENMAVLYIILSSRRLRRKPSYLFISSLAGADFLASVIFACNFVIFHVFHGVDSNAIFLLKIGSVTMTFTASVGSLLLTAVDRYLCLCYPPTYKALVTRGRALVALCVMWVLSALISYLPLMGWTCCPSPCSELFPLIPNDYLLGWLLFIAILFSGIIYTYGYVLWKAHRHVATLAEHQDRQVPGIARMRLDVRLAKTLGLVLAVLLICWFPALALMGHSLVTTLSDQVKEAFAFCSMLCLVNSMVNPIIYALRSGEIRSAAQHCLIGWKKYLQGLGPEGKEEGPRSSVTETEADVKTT

Which Ki (CB1 receptor; TABLE 2) does the source give for `Cc1ccc(S(=O)(=O)OCCCCn2cc(C(=O)c3cccc4ccccc34)c3ccccc32)cc1` [AM1286] here?
The Ki was 1510 nM.

What about the Ki (CB2 receptor; TABLE 2) of the same compound?
The Ki was 1290 nM.

Which results are given for `N#CCCCCn1cc(C(=O)c2cccc3ccccc23)c2ccccc21` [AM2232]?
Ki (CB1 receptor; TABLE 2): 0.28 nM; Ki (CB2 receptor; TABLE 2): 1.48 nM

Which results are given for `Nc1ccc2c(C(=O)c3cccc4ccccc34)cn(CCCCCO)c2c1` [AM1237]?
Ki (CB1 receptor; TABLE 2): 837 nM; Ki (CB2 receptor; TABLE 2): 244 nM; selectivity for the CB2 receptor (CB2 receptor): high selectivity for the CB2 receptor

Which Ki (CB1 receptor; TABLE 2) does the source give for `Cc1c(C(=O)c2ccccc2I)c2ccccc2n1CCCCCI` [AM2229] here?
Its Ki is 116 nM.

What about the Ki (CB2 receptor; TABLE 2) of the same compound?
The Ki was 46.2 nM.

Which Ki (CB1 receptor; TABLE 2) does the source give for `CCCCCCCn1c(C)c(C(=O)c2ccccc2I)c2ccccc21` [AM672] here?
Its Ki is 1600 nM.

And the Ki (CB2 receptor; TABLE 2)?
Its Ki is 1510 nM.

What does the source list for `CN1CCCCC1Cn1cc(C(=O)c2cccc3ccccc23)c2ccc(N)cc21` (racemic) [AM1219]?
Ki (CB1 receptor; TABLE 1, racemic samples): 96.6 nM; Ki (CB2 receptor; TABLE 1, racemic samples): 31.3 nM

With `O=C(c1ccc(N=C=S)c2ccccc12)c1cn(CCCCI)c2ccccc12` [AM2216] as the compound, how does the Ki (CB1 receptor; TABLE 2) read?
Its Ki is 42.4 nM.

What about the Ki (CB2 receptor; TABLE 2) of the same compound?
The Ki was 213 nM.

`Cc1ccc(S(=O)(=O)OCCCCCn2c(C)c(C(=O)c3ccccc3I)c3ccccc32)cc1` [AM2227] was tested. Which Ki (CB1 receptor; TABLE 2) did it give?
The Ki was 1020 nM.

And the Ki (CB2 receptor; TABLE 2)?
The Ki was 2970 nM.

Which results are given for `CN1CCCCC1Cn1cc(C(=O)c2cccc3ccccc23)c2ccc(N=C=S)cc21` (racemic) [AM1217]?
Ki (CB1 receptor; TABLE 1, racemic samples): 255 nM; Ki (CB2 receptor; TABLE 1, racemic samples): 81.5 nM

Which Ki (CB1 receptor; TABLE 1, racemic samples) does the source give for `Cc1c(C(=O)c2ccccc2I)c2ccc(N)cc2n1CC1CCCCN1C` (racemic) [AM665] here?
The Ki was 206 nM.

And the Ki (CB2 receptor; TABLE 1, racemic samples)?
Its Ki is 20.3 nM.

Which Ki (CB1 receptor; TABLE 2) does the source give for `CCCCCn1cc(C(=O)c2cc(N=C=S)ccc2I)c2ccccc21` [AM1204] here?
The Ki was 5660 nM.

What about the Ki (CB2 receptor; TABLE 2) of the same compound?
The Ki was 3350 nM.

With `Cc1c(C(=O)c2ccccc2I)c2ccccc2n1CCCCCN=C=S` [AM2230] as the compound, how does the Ki (CB1 receptor; TABLE 2) read?
Its Ki is 195 nM.

What about the Ki (CB2 receptor; TABLE 2) of the same compound?
The Ki was 29.5 nM.

What about the “selectivity for the CB2 receptor” value (CB2 receptor) of the same compound?
The value was “high selectivity for the CB2 receptor”.

`CCCCCn1c(C)c(C(=O)c2ccc(N(C)C)c3ccccc23)c2ccccc21` [AM1256] was tested. Which Ki (CB1 receptor; TABLE 2) did it give?
Its Ki is 4.74 nM.

What about the Ki (CB2 receptor; TABLE 2) of the same compound?
The Ki was 18.6 nM.

What does the source list for `O=C(c1cccc2ccccc12)c1cn(CCCN=C=S)c2ccccc12` [AM1294]?
Ki (CB1 receptor; TABLE 2): 283 nM; Ki (CB2 receptor; TABLE 2): 237 nM

`CCCCCn1c(C)c(C(=O)c2ccccc2I)c2ccccc21` [AM669] was tested. Which Ki (CB1 receptor; TABLE 2) did it give?
The Ki was 47.2 nM.

What about the Ki (CB2 receptor; TABLE 2) of the same compound?
The Ki was 38.6 nM.

`CN1CCCCC1Cn1cc(C(=O)c2ccc(I)c3ccccc23)c2ccc(N=[N+]=[N-])cc21` (racemic) [AM2212] was tested. Which Ki (CB1 receptor; TABLE 1, racemic samples) did it give?
Its Ki is 31 nM.

And the Ki (CB2 receptor; TABLE 1, racemic samples)?
Its Ki is 2.9 nM.

Which results are given for `Cc1c(C(=O)c2cccc3ccccc23)c2ccc(N=[N+]=[N-])cc2n1CC1CCCCN1C` (racemic) [AM1231]?
Ki (CB1 receptor; TABLE 1, racemic samples): 31.2 nM; Ki (CB2 receptor; TABLE 1, racemic samples): 34.2 nM

With `CN1CCCCC1Cn1cc(C(=O)c2cc(N=[N+]=[N-])ccc2I)c2ccc(N=[N+]=[N-])cc21` (racemic) [AM2209] as the compound, how does the Ki (CB1 receptor; TABLE 1, racemic samples) read?
The Ki was 48.8 nM.

What about the Ki (CB2 receptor; TABLE 1, racemic samples) of the same compound?
Its Ki is 41.8 nM.

Which results are given for `O=C(c1cccc2ccccc12)c1cn(CCCCCO)c2cc([N+](=O)[O-])ccc12` [AM1234]?
Ki (CB1 receptor; TABLE 2): 77.6 nM; Ki (CB2 receptor; TABLE 2): 197 nM

How did the Ki (CB1 receptor; TABLE 2) turn out when `O=C(c1cccc2ccccc12)c1cn(CCCCCF)c2cc([N+](=O)[O-])ccc12` [AM1235] was run?
Its Ki is 1.5 nM.

And the “selectivity for the CB1 receptor” value (CB1 receptor)?
Its value is “high selectivity for the CB1 receptor”.

And the Ki (CB2 receptor; TABLE 2)?
The Ki was 20.4 nM.

Which Ki (CB1 receptor; TABLE 2) does the source give for `O=C(c1cccc2ccccc12)c1cn(CCCCCN=C=S)c2ccccc12` [AM2204] here?
The Ki was 7.5 nM.

And the Ki (CB2 receptor; TABLE 2)?
Its Ki is 24.4 nM.

Which results are given for `Cc1ccc(S(=O)(=O)OCCCCCn2cc(C(=O)c3ccccc3I)c3ccccc32)cc1` [AM697]?
Ki (CB1 receptor; TABLE 2): 1310 nM; Ki (CB2 receptor; TABLE 2): 1120 nM

Which Ki (CB1 receptor; TABLE 1, racemic samples) does the source give for `CN1CCCCC1Cn1cc(C(=O)C23CC4CC(CC(C4)C2)C3)c2ccccc21` (centres unmarked) [AM1248] here?
The Ki was 100 nM.

And the Ki (CB2 receptor; TABLE 1, racemic samples)?
Its Ki is 332 nM.

How did the Ki (CB1 receptor; TABLE 2) turn out when `O=C(c1cccc2ccccc12)c1cn(CCCCCO)c2ccccc12` [AM2202] was run?
Its Ki is 33.1 nM.

What about the Ki (CB2 receptor; TABLE 2) of the same compound?
Its Ki is 111 nM.

How did the Ki (CB1 receptor; TABLE 2) turn out when `CCCCn1c(C)c(C(=O)c2ccccc2I)c2ccccc21` [AM683] was run?
Its Ki is 272 nM.

What about the Ki (CB2 receptor; TABLE 2) of the same compound?
The Ki was 281 nM.

Which results are given for `O=C(c1cccc2ccccc12)c1cn(CCCCI)c2ccccc12` [AM1288]?
Ki (CB1 receptor; TABLE 2): 1.3 nM; selectivity for the CB1 receptor (CB1 receptor): high selectivity for the CB1 receptor; Ki (CB2 receptor; TABLE 2): 10.5 nM
